Experimental data: patent US20110178053A1, “AZACARBOLINE DERIVATIVES, PREPARATION METHOD THEREOF AND THERAPEUTIC USE OF SAME” (SANOFI-AVENTIS, priority 2008, published 2011)

Experiments:
Assay type in all cases: biochemical
Pim-1 = target: T1, Pim-1 (Homo sapiens, UniProt P11309); assay: TR-FRET assay, Pim-1 kinase (phosphorylation of Bad Ser112); settings: TR-FRET; ATP 40 μM; read-out: IC50 Pim1
T1 construct: His6-labelled recombinant full-length human Pim-1, Pim-2 or Pim-3 protein; His6; made in house
T1 sequence (P11309 whole entry): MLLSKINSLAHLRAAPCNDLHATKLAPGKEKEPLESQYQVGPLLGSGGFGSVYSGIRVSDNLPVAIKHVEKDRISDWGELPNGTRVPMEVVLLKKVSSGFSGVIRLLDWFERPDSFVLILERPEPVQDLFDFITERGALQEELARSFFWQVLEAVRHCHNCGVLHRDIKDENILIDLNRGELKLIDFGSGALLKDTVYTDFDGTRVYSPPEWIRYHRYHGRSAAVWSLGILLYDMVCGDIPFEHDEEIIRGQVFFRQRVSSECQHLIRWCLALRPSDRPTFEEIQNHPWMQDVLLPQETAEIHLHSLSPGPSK
Protocol: (§1) In order to determine the inhibition of activation of Pim kinases, the compounds of the invention are tested in accordance with a routinely used in vitro TR-FRET assay (Time-Resolved Fluorescence Resonance Energy Transfer). […] For the assay, the following reagents are used:
(§2) Pim kinase—His6-labelled recombinant full-length human Pim-1, Pim-2 or Pim-3 protein (prepared according to J. Mol. Biol. (2005) 348, 183-193); Bad—His6-labelled recombinant full-length human Bad protein (prepared according to J. Mol. Biol. (2005) 348, 183-193); α-His6-APC—murine monoclonal antibody conjugated to allophycocyanin SureLight™ directed against the His6 label (Perkin-Elmer, No. AD0059H, Waltham, Mass., United States); • β-P˜Bad-Eu—murine monoclonal antibody (Cell Signaling Technology #9296B, Danvers, Mass., United States) directed against phosphoBad (Ser112) (7E11) custom-labelled by Perkin-Elmer with the reagent LANCE™ Eu-W1024.
(§3) The assay is based on Perkin-Elmer's LANCE™ technology: the Eu-labelled antibody binds to phospho-Ser112 and generates a TR-FRET signal by interaction with the APC-labelled antibody directed against His6, bound to the His6 label of Bad. The TR-FRET signal is detected using a SpectraMax M5 plate reader (Molecular Devices) with the following settings: λex=340 nm, λem1=615 nm, λem2=665 nm. The ratio of the fluorescence signal at 665 nm to the fluorescence signal at 615 nm is used as the signal reading for the IC50 (calculation is based on the 4-parameter logistic model). The assay is performed in a 384-well format; the liquid manipulations are performed using a Beckman 3000 liquid manipulations station. The test compounds are tested at 10 concentration points in duplicate; the highest compound concentration is typically equal to 30 μM. The ATP concentration is equal to 40 μM, which is equivalent to the apparent KM value.

Pim-2 = target: T2, Pim-2 (Homo sapiens, UniProt Q9P1W9); assay: TR-FRET assay, Pim-2 kinase (phosphorylation of Bad Ser112); settings: TR-FRET; ATP 40 μM; read-out: IC50 Pim2
T2 construct: His6-labelled recombinant full-length human Pim-1, Pim-2 or Pim-3 protein; His6; made in house
T2 sequence (Q9P1W9 whole entry): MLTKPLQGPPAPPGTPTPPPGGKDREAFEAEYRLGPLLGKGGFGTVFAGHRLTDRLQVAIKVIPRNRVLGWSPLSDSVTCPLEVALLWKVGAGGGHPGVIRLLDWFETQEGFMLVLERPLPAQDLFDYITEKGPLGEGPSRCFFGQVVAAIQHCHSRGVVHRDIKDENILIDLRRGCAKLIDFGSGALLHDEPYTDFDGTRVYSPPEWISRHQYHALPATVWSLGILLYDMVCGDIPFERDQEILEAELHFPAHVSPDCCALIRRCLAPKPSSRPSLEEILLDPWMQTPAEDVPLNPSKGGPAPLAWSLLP
Protocol: as §1, §2, §3

Pim-3 = target: T3, Pim-3 (Homo sapiens, UniProt Q86V86); assay: TR-FRET assay, Pim-3 kinase (phosphorylation of Bad Ser112); settings: TR-FRET; ATP 40 μM; read-out: IC50 Pim3
T3 construct: His6-labelled recombinant full-length human Pim-1, Pim-2 or Pim-3 protein; His6; made in house
Protocol: as §1, §2, §3

| Structure (SMILES) | IC50 (Pim-1) | IC50 (Pim-2) | IC50 (Pim-3) |
| --- | --- | --- | --- |
| CC(C)(O)C#Cc1c(F)cnc2[nH]c3cnc(-c4cccnc4)cc3c12 [Example 91, 4-[3-fluoro-6-(pyrid-3-yl)-9H-pyrrolo[2,3-b:5,4-c′]dipyrid-4-yl]-2-methylbut-3-yn-2-ol] | 1 to 100 nM | 1000 to 5000 nM | 1 to 100 nM |
| COc1c(F)cnc2[nH]c3cnc(-c4cccnc4)cc3c12 [Example 105, 3-fluoro-4-methoxy-6-(pyrid-3-yl)-9H-pyrrolo[2,3-b:5,4-c′]dipyridine] | 1 to 100 nM | > 5000 nM | 100 to 1000 nM |
| c1cncc(-c2cc3c(cn2)[nH]c2ncc(N4CCNCC4)cc23)c1 [Example 108, 3-(piperazin-1-yl)-6-(pyrid-3-yl)-9H-pyrrolo[2,3-b:5,4-c′]-dipyridine] | 1 to 100 nM | > 5000 nM | 1 to 100 nM |
| Nc1cnc2[nH]c3cnc(-c4cccnc4)cc3c2c1 [Example 109, 6-(pyrid-3-yl)-9H-pyrrolo[2,3-b:5,4-c′]dipyrid-3-amine] | 1 to 100 nM | > 5000 nM | 100 to 1000 nM |
| FC(F)(F)COc1cnc2[nH]c3cnc(-c4cccnc4)cc3c2c1 [Example 111, 6-(pyrid-3-yl)-3-(2,2,2-trifluoroethoxy)-9H-pyrrolo[2,3-b:5,4-c′]dipyridine] | 1 to 100 nM | 1000 to 5000 nM | 100 to 1000 nM |
| Ic1cnc2[nH]c3cnc(-c4cccnc4)cc3c2c1 [Example 114, 3-iodo-6-(pyrid-3-yl)-9H-pyrrolo[2,3-b:5,4-c′]dipyridine] | 100 to 1000 nM | 1000 to 5000 nM | 100 to 1000 nM |
| CC(C)Cn1cc(-c2cnc3[nH]c4cnc(-c5cccnc5)cc4c3c2)cn1 [Example 117, 3-[1-(2-methyl-propyl)-1H-pyrazol-4-yl]-6-(pyrid-3-yl)-9H-pyrrolo[2,3-b:5,4-c′]dipyridine] | 1 to 100 nM | 1000 to 5000 nM | 1 to 100 nM |
| c1cncc(-c2cc3c(cn2)[nH]c2ncc(-c4ccnc(N5CCNCC5)c4)cc23)c1 [Example 144, 3-[2-(piperazin-1-yl)pyrid-4-yl]-6-(pyrid-3-yl)-9H-pyrrolo[2,3-b:5,4-c′]dipyridine] | 1 to 100 nM | > 5000 nM | 1 to 100 nM |
| CN(C)CCCOc1ccc(-c2cnc3[nH]c4cnc(-c5cccnc5)cc4c3c2)cn1 [Example 145, N,N-dimethyl-3-({5-[6-(pyrid-3-yl)-9H-pyrrolo[2,3-b:5,4-c′]dipyrid-3-yl]pyrid-2-yl}-oxy)propan-1-amine] | 1 to 100 nM | 100 to 1000 nM | 1 to 100 nM |
| CN(C)CCCOc1ccc(-c2cnc3[nH]c4cnc(-c5cccnc5)cc4c3c2)cc1 [Example 146, N,N-dimethyl-3-{4-[6-(pyrid-3-yl)-9H-pyrrolo[2,3-b:5,4-c′]dipyrid-3-yl]phenoxy}-propan-1-amine] | 1 to 100 nM | 100 to 1000 nM | 1 to 100 nM |
| c1cncc(-c2cc3c(cn2)[nH]c2ncc(-c4ccc(OCCn5ccnc5)cc4)cc23)c1 [Example 150, 3-{4-[2-(1H-imidazol-1-yl)ethoxy]phenyl}-6-(pyrid-3-yl)-9H-pyrrolo[2,3-b:5,4-c′]-dipyridine] | 1 to 100 nM | 100 to 1000 nM | 1 to 100 nM |
| CS(=O)(=O)N1CCN(CCCOc2ccc(-c3cnc4[nH]c5cnc(-c6cccnc6)cc5c4c3)cc2)CC1 [Example 152, 3-(4-{3-[4-(methylsulfonyl)piperazin-1-yl]propoxy}phenyl)-6-(pyrid-3-yl)-9H-pyrrolo-[2,3-b:5,4-c′]dipyridine] | 1 to 100 nM | 100 to 1000 nM | 1 to 100 nM |
| CCN(CC)CCOc1cccc(-c2cnc3[nH]c4cnc(-c5cccnc5)cc4c3c2)c1 [Example 153, N,N-diethyl-2-{3-[6-(pyrid-3-yl)-9H-pyrrolo[2,3-b:5,4-c′]dipyrid-3-yl]phenoxy}ethan-amine] | 1 to 100 nM | 1000 to 5000 nM | 1 to 100 nM |

Further lines, results first:

| IC50 (Pim-1) | IC50 (Pim-2) | IC50 (Pim-3) | Structure (SMILES) |
| --- | --- | --- | --- |
| 1 to 100 nM | > 5000 nM | 1 to 100 nM | CN1CCN(c2cnc3[nH]c4cnc(-c5cccnc5)cc4c3c2)CC1 [Example 106, 3-(4-methylpiperazin-1-yl)-6-(pyrid-3-yl)-9H-pyrrolo[2,3-b:5,4-c′]dipyridine] |
| 1 to 100 nM | 100 to 1000 nM | 1 to 100 nM | c1cncc(-c2cc3c(cn2)[nH]c2ncc(-c4cccc(N5CCNCC5)c4)cc23)c1 [Example 132, 3-[3-(piperazin-1-yl)phenyl]-6-(pyrid-3-yl)-9H-pyrrolo[2,3-b:5,4-c′]dipyridine] |
| 1 to 100 nM | > 5000 nM | 1 to 100 nM | CN(C)CC(=O)N1CCN(c2cccc(-c3cnc4[nH]c5cnc(-c6cccnc6)cc5c4c3)c2)CC1 [Example 134, 2-(dimethylamino)-1-(4-{3-[6-(pyrid-3-yl)-9H-pyrrolo[2,3-b:5,4-c′]dipyrid-3-yl]-phenyl}piperazin-1-yl)ethanone] |
| 1 to 100 nM | 100 to 1000 nM | 1 to 100 nM | CN(C)CC(=O)N1CCN(c2ccc(-c3cnc4[nH]c5cnc(-c6cccnc6)cc5c4c3)cc2)CC1 [Example 135, 2-(dimethylamino)-1-(4-{4-[6-(pyrid-3-yl)-9H-pyrrolo[2,3-b:5,4-c′]dipyrid-3-yl]-phenyl}piperazin-1-yl)ethanone] |
| 1 to 100 nM | > 5000 nM | 1 to 100 nM | CC(=O)N1CCN(c2cccc(-c3cnc4[nH]c5cnc(-c6cccnc6)cc5c4c3)c2)CC1 [Example 136, 1-(4-{3-[6-(pyrid-3-yl)-9H-pyrrolo[2,3-b:5,4-c′]dipyrid-3-yl]phenyl}piperazin-1-yl)-ethanone] |
| 1 to 100 nM | 100 to 1000 nM | 1 to 100 nM | CC(=O)N1CCN(c2ccc(-c3cnc4[nH]c5cnc(-c6cccnc6)cc5c4c3)cc2)CC1 [Example 137, 1-(4-{4-[6-(pyrid-3-yl)-9H-pyrrolo[2,3-b:5,4-c′]dipyrid-3-yl]phenyl}piperazin-1-yl)-ethanone] |
| 1 to 100 nM | 100 to 1000 nM | 1 to 100 nM | CN1CCN(c2ccc(-c3cnc4[nH]c5cnc(-c6cccnc6)cc5c4c3)cc2)CC1 [Example 138, 3-[4-(4-methylpiperazin-1-yl)phenyl]-6-(pyrid-3-yl)-9H-pyrrolo[2,3-b:5,4-c′]dipyridine] |
| 1 to 100 nM | 1000 to 5000 nM | 1 to 100 nM | CN1CCN(c2cccc(-c3cnc4[nH]c5cnc(-c6cccnc6)cc5c4c3)c2)CC1 [Example 139, 3-[3-(4-methylpiperazin-1-yl)phenyl]-6-(pyrid-3-yl)-9H-pyrrolo[2,3-b:5,4-c′]dipyridine] |
| 1 to 100 nM | 1000 to 5000 nM | 1 to 100 nM | c1cncc(-c2cc3c(cn2)[nH]c2ncc(-c4ccc(N5CCN(C6CC6)CC5)cc4)cc23)c1 [Example 141, 3-[4-(4-cyclopropylpiperazin-1-yl)phenyl]-6-(pyrid-3-yl)-9H-pyrrolo[2,3-b:5,4-c′]-dipyridine] |
| 1 to 100 nM | > 5000 nM | 1 to 100 nM | c1cncc(-c2cc3c(cn2)[nH]c2ncc(-c4cccc(N5CCN(C6CC6)CC5)c4)cc23)c1 [Example 142, 3-[3-(4-cyclopropylpiperazin-1-yl)phenyl]-6-(pyrid-3-yl)-9H-pyrrolo[2,3-b:5,4-c′]-dipyridine] |
| 1 to 100 nM | 100 to 1000 nM | 1 to 100 nM | c1cncc(-c2cc3c(cn2)[nH]c2ncc(-c4ccc(OCCCN5CCCCC5)cc4)cc23)c1 [Example 147, 3-{4-[3-(piperid-1-yl)propoxy]phenyl}-6-(pyrid-3-yl)-9H-pyrrolo[2,3-b:5,4-c′]-dipyridine] |
| 1 to 100 nM | 100 to 1000 nM | 1 to 100 nM | c1cncc(-c2cc3c(cn2)[nH]c2ncc(-c4ccc(OCCN5CCOCC5)cc4)cc23)c1 [Example 148, 3-{4-[2-(morpholin-4-yl)ethoxy]phenyl}-6-(pyrid-3-yl)-9H-pyrrolo[2,3-b:5,4-c′]-dipyridine] |
| 1 to 100 nM | 100 to 1000 nM | 1 to 100 nM | c1cncc(-c2cc3c(cn2)[nH]c2ncc(-c4ccc(OCCCN5CCOCC5)cc4)cc23)c1 [Example 149, 3-{4-[3-(morpholin-4-yl)propoxy]phenyl}-6-(pyrid-3-yl)-9H-pyrrolo[2,3-b:5,4-c′]-dipyridine] |
| 1 to 100 nM | 100 to 1000 nM | 1 to 100 nM | Oc1ccc(-c2cnc3[nH]c4cnc(-c5cccnc5)cc4c3c2)cc1 [Example 151, 4-[6-(pyrid-3-yl)-9H-pyrrolo[2,3-b:5,4-c′]dipyrid-3-yl]phenol] |
